# Counter-ions that a name gives are not always drawn.
row,SMILES,melting point
1,"CC(C)(F)c1cnn2c(-c3ccc(F)c(-c4cccnc4)c3)cnc2n1 (as salt: hydrochloride) [Example 3, 3-(1-Fluoro-1-methylethyl)-7-[4-fluoro-3-(pyridin-3-yl)phenyl]imidazo[1,2-b][1,2,4]triazine]",113 to 126 °C
2,"Cc1cnn2c(-c3cccc(-c4ccccc4C#N)c3)cnc2n1 [Example 1, 3′-(3-methylimidazo[1,2-b][1,2,4]triazin-7-yl)biphenyl-2-carbonitrile]",211 to 216 °C
3,"N#Cc1ccccc1-c1cc(-c2cnc3nc(C(F)(F)F)cnn23)ccc1F [Example 2, 2′-Fluoro-5′-(3-trifluoromethylimidazo[1,2-b][1,2,4]triazin-7-yl)biphenyl-2-carbonitrile]",168 to 174 °C
4,"N#Cc1ccccc1-c1cc(-c2cnc3nccnn23)ccc1F [Example 5, 2′-Fluoro-5′-(imidazo[1,2-b][1,2,4]triazin-7-yl)biphenyl-2-carbonitrile]",211 to 215 °C
5,"Fc1ccc(-c2cnc3nc(C(F)(F)F)cnn23)cc1-c1ccccn1 [Example 6, 7-[4-Fluoro-3-(pyridin-2-yl)phenyl]-3-trifluoromethylimidazo[1,2-b][1,2,4]triazine]",128 to 131 °C
6,"N#Cc1ccccc1-c1cccc(-c2cnc3nc(C(F)(F)F)cnn23)c1F [Example 7, 2′-Fluoro-3′-(3-trifluoromethylimidazo[1,2-b][1,2,4]triazin-7-yl)biphenyl-2-carbonitrile]",167 to 168 °C
7,"CC(C)(O)c1cnn2c(-c3ccc(F)c(-c4cccnc4)c3)cnc2n1 [Example 14, 2-{7-[4-Fluoro-3-(pyridin-3-yl)phenyl]imidazo[1,2-b][1,2,4]triazin-3-yl}propan-2-ol]",199 to 200 °C
8,"CC(C)(O)c1cnn2c(-c3ccc(F)c(-c4ccncc4)c3)cnc2n1 [Example 15, 2-{7-[4-Fluoro-3-(pyridin-4-yl)phenyl]imidazo[1,2-b][1,2,4]triazin-3-yl}propan-2-ol]",233 to 237 °C
9,"CC(C)(O)c1cnn2c(-c3ccc(F)c(-c4ccccc4C#N)c3)cnc2n1 [Example 16, 2′-Fluoro-5′-[3-(1-hydroxy-1-methylethyl)imidazo[1,2-b][1,2,4]triazin-7-yl]biphenyl-2-carbonitrile]",187 °C
10,"CC(C)(O)c1cnn2c(-c3cccc(-c4ccncc4)c3F)cnc2n1 [Example 19, 2-{7-[2-Fluoro-3-(pyridin-4-yl)phenyl]imidazo[1,2-b][1,2,4]triazin-3-yl}propan-2-ol]",221 to 223 °C
11,"CC(C)(O)c1cnn2c(-c3cccc(-c4ccccc4C#N)c3)cnc2n1 [Example 22, 3′-[3-(1-Hydroxy-1-methylethyl)imidazo[1,2-b][1,2,4]triazin-7-yl]biphenyl-2-carbonitrile]",166 °C
12,"CC(C)(F)c1cnn2c(-c3ccc(F)c(-c4c(F)cccc4C#N)c3)cnc2n1 [Example 25, 6,2′-Difluoro-5′-[3-(1-fluoro-1-methylethyl)imidazo[1,2-b][1,2,4]triazin-7-yl]biphenyl-2-carbonitrile]",187 to 188 °C
13,"CC(C)(O)c1cnn2c(-c3ccc(F)c(-c4ccc(F)cn4)c3)cnc2n1 [Example 29, 2-{7-[4-Fluoro-3-(5-fluoropyridin-2-yl)phenyl]imidazo[1,2-b][1,2,4]triazin-3-yl}propan-2-ol]",222 °C

# Source: patent publication US6936608B2, “Imidazo-triazine derivatives as ligands for GABA receptors” (Merck Sharp & Dohme Ltd., priority 2000, dated 2005)
